Reference: US20240050428A1 (Cullgen (Shanghai), Inc., priority 2020, published 2024)
Where two headings read alike, the source gives them in different places.

Key:
MV4;11 cells = assay: Cell viability assay (CellTiter-Glo) in MV4;11 cells, alone or with gilteritinib; format: cell-based; conditions: Homo sapiens, MV4-11, 72 h, MV4;11 cells, CellTiter-Glo, read-out: MV4
MOLM-13 cells = assay: Cell viability assay (CellTiter-Glo) in MOLM-13 cells, alone or with gilteritinib; format: cell-based; conditions: Homo sapiens, MOLM-13, 72 h, MOLM-13 cells, CellTiter-Glo
[1] = compound alone (without gilteritinib), three days, 11 IC50
[2] = compound with gilteritinib 10 nM, three days, 11 IC50 gilteritinib
[3] = compound alone (without gilteritinib), three days, read-out: MOLM-13 IC50
[4] = compound with gilteritinib 20 nM, three days, read-out: MOLM-13 IC50 gilteritinib
[5] = with gilteritinib 10 nM, three days, 11 IC50 gilteritinib
[6] = with gilteritinib 20 nM, three days, read-out: MOLM-13 IC50 gilteritinib

Row | IC50 (MV4;11 cells; [1]) | IC50 (MV4;11 cells; [2]) | IC50 (MOLM-13 cells; [3]) | IC50 (MOLM-13 cells; [4]) | IC50 (MV4;11 cells; [5]) | IC50 (MOLM-13 cells; [6]) | IC50 (MV4;11 cells; with 10 nM gilteritinib, 3 days, 11 IC50 gilteritinib) | IC50 (MV4;11 cells; without gilteritinib, 3 days, 11 IC50) | IC50 (MOLM-13 cells; with 20 nM gilteritinib, 3 days, read-out: MOLM-13 IC50 gilteritinib) | IC50 (MOLM-13 cells; without gilteritinib, 3 days, read-out: MOLM-13 IC50) | Compound
1 | > 1 µM | 0.1 to 1 µM | > 1 µM | 0.1 to 1 µM |  |  |  |  |  |  | O=C1CCC(N2C(=O)c3ccc(NCCCC4CC(n5cc(-c6cnc7ccc(CC8CNC8)cc7n6)cn5)C4)cc3C2=O)C(=O)N1 (centres unmarked) [GS-566, 5-((3-(3-(4-(7-(Azetidin-3-ylmethyl)quinoxalin-2-yl)-1H-pyrazol-1-yl)cyclobutyl)propyl)amino)-2-(2,6-dioxopiperidin-3-yl)isoindoline-1,3-dione]
2 | 0.01 to 0.1 µM | < 0.01 µM | 0.01 to 0.1 µM | < 0.01 µM |  |  |  |  |  |  | O=C1CCC(N2C(=O)c3ccc(NCCC[C@H]4C[C@H](n5cc(-c6cnc7ccc(N8CCN(C9CCC9)CC8)cc7n6)cn5)C4)cc3C2=O)C(=O)N1 (stereo partly drawn) [GS-580, 5-((3-(trans-3-(4-(7-(4-Cyclobutylpiperazin-1-yl)quinoxalin-2-yl)-1H-pyrazol-1-yl)cyclobutyl)propyl)amino)-2-(2,6-dioxopiperidin-3-yl)isoindoline-1,3-dione]
3 | 0.01 to 0.1 µM |  | > 1 µM |  | < 0.01 µM | 0.01 to 0.1 µM |  |  |  |  | O=C1CCC(N2C(=O)c3ccc(NCCC[C@H]4C[C@H](n5cc(-c6ncccc6Cl)cn5)C4)cc3C2=O)C(=O)N1 (stereo partly drawn) [GS-311, 5-((3-(trans-3-(4-(3-Chloropyridin-2-yl)-1H-pyrazol-1-yl)cyclobutyl)propyl)amino)-2-(2,6-dioxopiperidin-3-yl)isoindoline-1,3-dione]
4 |  |  |  |  |  |  | 0.06 µM | 0.293 µM | 0.106 µM | 0.875 µM | O=C(COc1ccc2c(c1)CN(C1CCC(=O)NC1=O)C2=O)NCCC(=O)N1CCC(n2cc(-c3cnc4cccc(Br)c4n3)cn2)CC1 (centres unmarked) [GS-022, N-(3-(4-(4-(8-bromoquinoxalin-2-yl)-1H-pyrazol-1-yl)piperidin-1-yl)-3-oxopropyl)-2-((2-(2,6-dioxopiperidin-3-yl)-1-oxoisoindolin-5-yl)oxy)acetamide]
5 | 0.1 to 1 µM | 0.01 to 0.1 µM | 0.1 to 1 µM | 0.01 to 0.1 µM |  |  |  |  |  |  | Cc1cccc(-c2cnn(CCCCCCNc3ccc4c(c3)C(=O)N(C3CCC(=O)NC3=O)C4=O)c2)n1 (centres unmarked) [GS-498, 2-(2,6-dioxopiperidin-3-yl)-5-((6-(4-(6-methylpyridin-2-yl)-1H-pyrazol-1-yl)hexyl)amino)isoindoline-1,3-dione]
6 | 0.01 to 0.1 µM |  | > 1 µM |  | < 0.01 µM | 0.01 to 0.1 µM |  |  |  |  | O=C1CCC(N2Cc3ccc(CCCCCC(=O)N4CCC(c5cccc(Cl)c5)CC4)cc3C2=O)C(=O)N1 (centres unmarked) [GS-113, 3-(6-(6-(4-(3-Chlorophenyl)piperidin-1-yl)-6-oxohexyl)-1-oxoisoindolin-2-yl)piperidine-2,6-dione]
7 | 0.1 to 1 µM |  | > 1 µM |  | 0.01 to 0.1 µM | 0.1 to 1 µM |  |  |  |  | O=C1CCC(N2Cc3ccc(CCCCCCC(=O)N4CCC(c5ccccn5)CC4)cc3C2=O)C(=O)N1 (centres unmarked) [GS-111, 3-(1-Oxo-6-(7-oxo-7-(4-(pyridin-2-yl)piperidin-1-yl)heptyl)isoindolin-2-yl)piperidine-2,6-dione]
8 | 0.1 to 1 µM |  | 0.1 to 1 µM |  | 0.01 to 0.1 µM | 0.01 to 0.1 µM |  |  |  |  | O=C1CCC(N2C(=O)c3ccc(NCCC[C@H]4C[C@H](n5cc(-c6cnc7ccc(CN8CCNCC8)cc7n6)cn5)C4)cc3C2=O)C(=O)N1 (stereo partly drawn) [GS-209, 2-(2,6-Dioxopiperidin-3-yl)-5-((3-(trans-3-(4-(7-(piperazin-1-ylmethyl)quinoxalin-2-yl)-1H-pyrazol-1-yl)cyclobutyl)propyl)amino)isoindoline-1,3-dione]
9 | > 1 µM |  | 0.1 to 1 µM |  | > 1 µM | 0.1 to 1 µM |  |  |  |  | O=C1CCC(N2C(=O)c3ccc(NCCCN4CC(n5cc(-c6cnc7ccccc7n6)cn5)C4)cc3C2=O)C(=O)N1 (centres unmarked) [GS-371, 2-(2,6-Dioxopiperidin-3-yl)-5-((3-(3-(4-(quinoxalin-2-yl)-1H-pyrazol-1-yl)azetidin-1-yl)propyl)amino)isoindoline-1,3-dione]
10 | < 0.01 µM |  | < 0.01 µM |  | < 0.01 µM | < 0.01 µM |  |  |  |  | CN1CCN(c2cccc3nc(-c4cn([C@H]5C[C@H](CNc6ccc7c(c6)C(=O)N(C6CCC(=O)NC6=O)C7=O)C5)nc4C4CC4)cnc23)CC1 (stereo partly drawn) [GS-267, 5-(((trans-3-(3-Cyclopropyl-4-(5-(4-methylpiperazin-1-yl)quinoxalin-2-yl)-1H-pyrazol-1-yl)cyclobutyl)methyl)amino)-2-(2,6-dioxopiperidin-3-yl)isoindoline-1,3-dione]
11 | 0.01 to 0.1 µM |  | 0.01 to 0.1 µM |  | < 0.01 µM | < 0.01 µM |  |  |  |  | O=C1CCC(N2C(=O)c3ccc(NC[C@H]4C[C@H](n5cc(-c6cnc7cc(N8CCOCC8)ccc7n6)c(C6CC6)n5)C4)cc3C2=O)C(=O)N1 (stereo partly drawn) [GS-066, 5-(((trans-3-(3-Cyclopropyl-4-(6-morpholinoquinoxalin-2-yl)-1H-pyrazol-1-yl)cyclobutyl)methyl)amino)-2-(2,6-dioxopiperidin-3-yl)isoindoline-1,3-dione]
12 | > 1 µM |  | > 1 µM |  | > 1 µM | 0.1 to 1 µM |  |  |  |  | CN1CCN(c2ccc3ncc(-c4cnn([C@H]5C[C@@H](CNc6ccc7c(c6)C(=O)N(C6CCC(=O)NC6=O)C7=O)C5)c4)nc3c2)CC1 (stereo partly drawn) [GS-190, 2-(2,6-Dioxopiperidin-3-yl)-5-(((cis-3-(4-(7-(4-methylpiperazin-1-yl)quinoxalin-2-yl)-1H-pyrazol-1-yl)cyclobutyl)methyl)amino)isoindoline-1,3-dione]
13 | 0.1 to 1 µM |  | 0.01 to 0.1 µM |  | 0.01 to 0.1 µM | < 0.01 µM |  |  |  |  | O=C1CCC(N2Cc3ccc(CCCCCCC(=O)N4CCC(c5cccc(Cl)c5)CC4)cc3C2=O)C(=O)N1 (centres unmarked) [GS-115, 3-(6-(7-(4-(3-Chlorophenyl)piperidin-1-yl)-7-oxoheptyl)-1-oxoisoindolin-2-yl)piperidine-2,6-dione]
14 | 0.1 to 1 µM | 0.01 to 0.1 µM | 0.1 to 1 µM | 0.01 to 0.1 µM |  |  |  |  |  |  | O=C1CCC(N2C(=O)c3ccc(NCCCCCCn4cc(-c5cnc6cc(Br)ccc6n5)cn4)cc3C2=O)C(=O)N1 (centres unmarked) [GS-517, 5-((6-(4-(6-Bromoquinoxalin-2-yl)-1H-pyrazol-1-yl)hexyl)amino)-2-(2,6-dioxopiperidin-3-yl)isoindoline-1,3-dione]
15 | < 0.01 µM |  | 0.01 to 0.1 µM |  | < 0.01 µM | < 0.01 µM |  |  |  |  | O=C1CCC(N2Cc3c(NC4CCCC(Nc5cccc(N6CCC(n7cc(-c8cnc9ccccc9n8)cn7)CC6)c5)C4)cccc3C2=O)C(=O)N1 (centres unmarked) [GS-110, 3-(1-Oxo-4-((3-((3-(4-(4-(quinoxalin-2-yl)-1H-pyrazol-1-yl)piperidin-1-yl)phenyl)amino)cyclohexyl)amino)isoindolin-2-yl)piperidine-2,6-dione]
16 | > 1 µM |  | > 1 µM |  | > 1 µM | > 1 µM |  |  |  |  | O=C1CCC(N2Cc3c(Nc4ccnc(NCCCN5CCC(n6cc(-c7cnc8ccccc8n7)cn6)CC5)n4)cccc3C2=O)C(=O)N1 (centres unmarked) [GS-088, 3-(1-Oxo-4-((2-((3-(4-(4-(quinoxalin-2-yl)-1H-pyrazol-1-yl)piperidin-1-yl)propyl)amino)pyrimidin-4-yl)amino)isoindolin-2-yl)piperidine-2,6-dione]
17 | 0.1 to 1 µM | 0.01 to 0.1 µM | > 1 µM | 0.1 to 1 µM |  |  |  |  |  |  | O=C1CCC(N2C(=O)c3ccc(NC[C@H]4C[C@H](n5cc(N6CCCCC6)c(C6CC6)n5)C4)cc3C2=O)C(=O)N1 (stereo partly drawn) [GS-448, 5-(((trans-3-(3-cyclopropyl-4-(piperidin-1-yl)-1H-pyrazol-1-yl)cyclobutyl)methyl)amino)-2-(2,6-dioxopiperidin-3-yl)isoindoline-1,3-dione]
